Read-outs that look alike come from different tables or passages of the source.
Assays:
[1] = target: T1, holoenzyme CK2α2β2 (Homo sapiens, UniProt P68400); test: Capillary electrophoresis (CE) assay, enzyme inhibition of the holoenzyme; type: biochemical; conditions: for inhibition at 10 µM: read-out: Inhibition (%) of CK2α2β2
T1 construct: made in house; host or cells: E. coli BL21(DE3)
Description: (§1) In this assay, the decapeptide […], a known class I substrate suitable for assaying the kinase activity of both the CK2 holoenzyme and the catalytically active CK2 subunits,50, 58 was reacted with ATP in the presence of enzyme, which transfers a phosphate group to Ser7 of the decapeptide. Due to the additional negative charge of the phosphate group, the decapeptide and the phosphorylated decapeptide can be separated by CE.
Enzymatic activities with or without inhibitors were determined for the holoenzyme (CK2α2β2), the CK2α subunit, and the mutated CK2α′ ^C336S subunit by a capillary electrophoresis assay as described before.59 For this purpose, CK2α as well as (CK2α2β2) holoenzyme were purified after recombinant expression in E. coli BL21(DE3) and purified according the protocol of Grankowski et al.62 The mutated CK2α′ ^C336S subunit was purified by Ni‐NTA affinity chromatography using an N‐terminally attached His6 tag. […] For both CK2α subunits an assay buffer containing 100 mM NaCl instead of 60 mM NaCl as for the holoenzyme, and 20 mM MgCl2 instead of 10 mM MgCl2 was applied. For the holoenzyme, 1 μg was added, whereas for CK2α and the mutated CK2α′ ^C336S subunit 0.25 μg was added each. For each compound inhibition was determined three times independently at an initial concentration of 10 μM and the mean value and the standard deviation (SD) were calculated.

[2] = target: T2, CK2α/CK2β interaction (CK2α^1−335 / fluorescently labeled CK2β^1−193) (Homo sapiens, UniProt P68400); conditions: for Inhibition of CK2α/CK2β2 interaction K i: MST, global fit with K D = […] nM, mean±SEM of 2–4 experiments, prec.=precipitation, n.s.=not significant
T2 sequence (P68400 1-335): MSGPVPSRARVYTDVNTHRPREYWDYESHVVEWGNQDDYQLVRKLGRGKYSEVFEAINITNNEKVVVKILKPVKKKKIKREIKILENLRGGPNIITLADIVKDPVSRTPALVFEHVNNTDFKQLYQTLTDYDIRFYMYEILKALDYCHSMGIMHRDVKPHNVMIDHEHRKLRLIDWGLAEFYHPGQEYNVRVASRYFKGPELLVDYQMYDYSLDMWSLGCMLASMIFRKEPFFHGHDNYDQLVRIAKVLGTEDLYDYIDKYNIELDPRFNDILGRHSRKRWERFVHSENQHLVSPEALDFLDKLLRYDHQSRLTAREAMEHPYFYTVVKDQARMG
Description: The inhibition of the interaction between the CK2α and the CK2β subunit was determined in a microscale thermophoresis (MST) assay.
To quantify the protein‐protein interaction in the presence of potential inhibitors, the investigated compounds were first dissolved in DMSO (2‐10 mM) and then 50‐fold diluted in ITC buffer (25 mM Tris‐HCl, 500 mM NaCl, pH 8.5) containing 0.1 % (v/v) Tween 20 to concentrations of either 40, 100 or 200 μM in 2 % (v/v) DMSO, i. e. twice the final concentrations: 20, 50 and 100 μM, respectively, in 1 % (v/v) DMSO, 0.05 % (v/v) Tween 20. […] MST traces were recorded at room temperature using a Nanotemper Monolith™ NT.115 Series Instrument with Monolith™ NT.115 standard treated capillaries and normalized to initial fluorescence (MO.Affinity Analysis, Nanotemper). […] Next, the statistical significance of the shift from K D to K D’ was determined for each compound by means of an unpaired Student's t test (Table S4). […] Data was analyzed and statistically evaluated with the program GraphPad Prism v.5.04 for Windows (GraphPad Software, San Diego, CA, USA).
a Shown are mean  SEM values of KD and KD’ for n separate experiments.
significant (n. s.), P > 0.05; *, P ≤ 0.05; **, P ≤ 0.01; ***, P ≤ 0.001; ****, P ≤ 0.0001. prec.

[3] = target: T3, CK2α subunit (Homo sapiens, UniProt P68400); test: Capillary electrophoresis (CE) assay, enzyme inhibition of the CK2α subunit; type: biochemical; conditions: for inhibition at 10 µM: read-out: Inhibition (%) of CK2α
T3 construct: made in house; host or cells: E. coli BL21(DE3)
T3 sequence (P68400 whole entry): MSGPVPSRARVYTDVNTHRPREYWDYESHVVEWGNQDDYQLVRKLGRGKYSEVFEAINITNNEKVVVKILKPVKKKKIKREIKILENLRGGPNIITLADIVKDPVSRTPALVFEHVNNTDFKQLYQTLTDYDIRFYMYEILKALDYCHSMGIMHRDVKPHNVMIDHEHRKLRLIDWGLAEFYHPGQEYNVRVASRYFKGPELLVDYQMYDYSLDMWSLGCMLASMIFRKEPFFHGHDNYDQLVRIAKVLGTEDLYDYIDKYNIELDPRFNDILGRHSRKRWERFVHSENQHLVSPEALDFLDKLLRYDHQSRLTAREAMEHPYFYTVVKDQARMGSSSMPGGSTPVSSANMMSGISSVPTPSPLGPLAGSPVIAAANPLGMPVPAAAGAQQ
Source text: as §1, with “CE. […] The data on the inhibition of the kinase activities of CK2α2β2, CK2α subunit and mutated CK2α’ ^C336S subunit are summarized in Table 1.” for “CE.”
(§2) Enzymatic activities with or without inhibitors were determined for the holoenzyme (CK2α2β2), the CK2α subunit, and the mutated CK2α′ ^C336S subunit by a capillary electrophoresis assay as described before.59 For this purpose, CK2α as well as (CK2α2β2) holoenzyme were purified after recombinant expression in E. coli BL21(DE3) and purified according the protocol of Grankowski et al.62 The mutated CK2α′ ^C336S subunit was purified by Ni‐NTA affinity chromatography using an N‐terminally attached His6 tag. Successful purification was controlled by SDS‐PAGE. Enzymatic activity was determined in the presence of 60 μM ATP and 114 μM of the substrate peptide […]. For both CK2α subunits an assay buffer containing 100 mM NaCl instead of 60 mM NaCl as for the holoenzyme, and 20 mM MgCl2 instead of 10 mM MgCl2 was applied. For the holoenzyme, 1 μg was added, whereas for CK2α and the mutated CK2α′ ^C336S subunit 0.25 μg was added each. For each compound inhibition was determined three times independently at an initial concentration of 10 μM and the mean value and the standard deviation (SD) were calculated.

[4] = target: T4, mutated CK2α’ ^C336S subunit (Homo sapiens, UniProt P19784, C336S); test: Capillary electrophoresis (CE) assay, enzyme inhibition of the mutated CK2α′ C336S subunit; type: biochemical; conditions: for inhibition at 10 µM: read-out: Inhibition (%) of CK2α’ ^C336S
T4 construct: His6 (N); made in house
T4 sequence (P19784 1-350 C336S): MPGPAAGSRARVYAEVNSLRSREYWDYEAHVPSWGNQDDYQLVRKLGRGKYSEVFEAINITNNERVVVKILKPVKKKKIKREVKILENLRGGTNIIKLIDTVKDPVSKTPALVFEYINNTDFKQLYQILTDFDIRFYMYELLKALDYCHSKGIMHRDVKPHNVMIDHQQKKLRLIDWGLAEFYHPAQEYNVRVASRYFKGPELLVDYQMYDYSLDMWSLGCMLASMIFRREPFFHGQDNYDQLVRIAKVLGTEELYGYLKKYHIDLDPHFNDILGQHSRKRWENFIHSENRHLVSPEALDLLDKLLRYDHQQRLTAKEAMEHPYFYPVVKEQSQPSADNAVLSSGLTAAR
Source text: as §1, with “CE. […] The data on the inhibition of the kinase activities of CK2α2β2, CK2α subunit and mutated CK2α’ ^C336S subunit are summarized in Table 1.” for “CE.”
as §2

[5] = c=10 μM, CE assay, mean±SD of three experiments, n.s.=not significant

T1 sequence (P68400 whole entry): as the sequence (P68400 whole entry) above

| SMILES | Ki [2] [µM] | Inhibition (%) of CK2α [3, 5] | Inhibition (%) of CK2α’ ^C336S [4, 5] | inhibition at 10 µM [1, 5] [%] | Inhibition of CK2α/CK2β2 interaction K i [2] | further results |
| --- | --- | --- | --- | --- | --- | --- |
| COc1cc([C@H]2c3c([nH]c4ccccc34)[C@H](C(=O)N3C(=O)OC[C@@H]3Cc3ccccc3)[C@H]3C(=O)OC(=O)[C@@H]23)cc(OC)c1OC [(+)‐3 c, (3aR,4R,10S,10aS)‐4‐{[(S)‐4‐Benzyl‐2‐oxo‐1,3‐oxazolidin‐3‐yl]carbonyl}‐10‐(3,4,5‐trimethoxyphenyl)‐4,5,10,10a‐tetrahydrofuro[3,4‐b]carbazole‐1,3(3aH)‐dione] |  |  |  |  |  | inhibition at 10 µM [1]: 66 ± 16%; inhibition at 10 µM [3]: 65 ± 4%; inhibition at 10 µM [4]: 52 ± 38% |
| COc1cc([C@@H]2c3c([nH]c4ccccc34)[C@@H](C(=O)N3C(=O)OC[C@@H]3Cc3ccccc3)[C@@H]3C(=O)OC(=O)[C@H]23)cc(OC)c1OC [(+)‐3 d, (3aS,4S,10R,10aR)‐4‐{[(S)‐4‐Benzyl‐2‐oxo‐1,3‐oxazolidin‐3‐yl]carbonyl}‐10‐(3,4,5‐trimethoxyphenyl)‐4,5,10,10a‐tetrahydrofuro[3,4‐b]carbazole‐1,3(3aH)‐dione] |  |  | n.s. |  |  | inhibition at 10 µM [1]: 92 ± 7%; inhibition at 10 µM [3]: 43 ± 13% |
| COc1cc([C@H]2c3c([nH]c4ccccc34)[C@@H](C(=O)N3C(=O)OC[C@@H]3Cc3ccccc3)[C@H]3C(=O)NC(=O)[C@@H]23)cc(OC)c1OC [(+)‐9 a] |  | n.s. | n.s. | 20 ± 4 | n.s. |  |
| COc1cc([C@H]2c3c([nH]c4ccccc34)[C@@H](C(=O)N3C(=O)OC[C@H]3Cc3ccccc3)[C@H]3C(=O)NC(=O)[C@@H]23)cc(OC)c1OC [(+)‐9 b, (3aS,4S,10S,10aS)‐4‐{[(R)‐4‐Benzyl‐2‐oxo‐1,3‐oxazolidin‐3‐yl]carbonyl}‐10‐(3,4,5‐trimethoxyphenyl)‐4,5,10,10a‐tetrahydropyrrolo[3,4‐b]carbazole‐1,3(2H,3aH)‐dione] | 4.9 ± 0.8 | n.s. | n.s. | 12 ± 7 |  |  |
| COc1cc([C@H]2c3c([nH]c4ccccc34)[C@H](C(=O)N3C(=O)OC[C@@H]3Cc3ccccc3)[C@H]3C(=O)NC(=O)[C@@H]23)cc(OC)c1OC [(+)‐9 c] |  |  |  | < 50 | prec. |  |
| COc1cc([C@H]2c3c([nH]c4ccccc34)[C@H](C(=O)N3C(=O)OC[C@H]3Cc3ccccc3)[C@H]3C(=O)NC(=O)[C@@H]23)cc(OC)c1OC [(+)‐9 d] |  |  |  | < 50 | n.s. |  |
| COc1cc([C@@H]2c3c([nH]c4ccccc34)[C@H](C(=O)N3C(=O)OC[C@H]3Cc3ccccc3)[C@@H]3C(=O)OC(=O)[C@H]23)cc(OC)c1OC [(−)‐3 a] |  |  |  |  |  | inhibition at 10 µM [1]: 89 ± 3%; inhibition at 10 µM [3]: 73 ± 4%; inhibition at 10 µM [4]: 93 ± 2% |

Continued, in another order:

| Ki [2] [µM] | Inhibition (%) of CK2α [3, 5] | Inhibition (%) of CK2α’ ^C336S [4, 5] | inhibition at 10 µM [1, 5] [%] | Inhibition of CK2α/CK2β2 interaction K i [2] | SMILES | further results |
| --- | --- | --- | --- | --- | --- | --- |
| 32 ± 17 | n.s. | n.s. |  |  | CCOC(=O)C1c2[nH]c3ccccc3c2C(c2cc(OC)c(OC)c(OC)c2)C2C(=O)NC(=O)C12 (racemic) [(±)‐11] | Inhibition (%) of CK2α2β2 [1, 5]: n.s. |
| 1.8 ± 0.8 | n.s. | n.s. |  |  | COc1cc([C@@H]2c3c([nH]c4ccccc34)[C@@H](C(=O)O)[C@@H]3C(=O)NC(=O)[C@H]23)cc(OC)c1OC (racemic) [(±)‐12] | Inhibition (%) of CK2α2β2 [1, 5]: n.s. |
| 2.8 ± 0.9 |  |  | 26 ± 7 |  | COc1cc([C@H]2c3c([nH]c4ccccc34)[C@@H](C(=O)N3C(=O)OC[C@@H]3Cc3ccccc3)[C@H]3C(=O)N(C)C(=O)[C@@H]23)cc(OC)c1OC [(+)‐10 a] | inhibition at 10 µM [3, 5]: 41 ± 11%; inhibition at 10 µM [4, 5]: 53 ± 15% |
| 7.2 ± 1.5 | n.s. | n.s. | 31 ± 9 |  | COc1cc([C@H]2c3c([nH]c4ccccc34)[C@@H](C(=O)N3C(=O)OC[C@H]3Cc3ccccc3)[C@H]3C(=O)N(C)C(=O)[C@@H]23)cc(OC)c1OC [(+)‐10 b, (3aS,4S,10S,10aS)‐4‐{[(R)‐4‐Benzyl‐2‐oxo‐1,3‐oxazolidin‐3‐yl]carbonyl}‐2‐methyl‐10‐(3,4,5‐trimethoxyphenyl)‐4,5,10,10a‐tetrahydropyrrolo[3,4‐b]carbazole‐1,3(2H,3aH)‐dione] |  |
|  |  |  | < 50 | n.s. | COc1cc([C@H]2c3c([nH]c4ccccc34)[C@H](C(=O)N[C@H](CO)Cc3ccccc3)[C@H]3C(=O)NC(=O)[C@@H]23)cc(OC)c1OC [(+)‐14 c] |  |
|  |  |  | < 50 | n.s. | COc1cc([C@H]2c3c([nH]c4ccccc34)[C@H](C(=O)N[C@@H](CO)Cc3ccccc3)[C@H]3C(=O)NC(=O)[C@@H]23)cc(OC)c1OC [(+)‐14 d] |  |
|  |  |  | < 50 | prec. | COc1cc([C@@H]2c3c([nH]c4ccccc34)[C@@H](C(=O)N3C(=O)OC[C@H]3Cc3ccccc3)[C@@H]3C(=O)NC(=O)[C@H]23)cc(OC)c1OC [(‐)‐9 c] |  |
| 3.6 ± 0.6 | n.s. | n.s. |  |  | COc1cc([C@@H]2c3c([nH]c4ccccc34)[C@H](C(=O)N3C(=O)OC[C@H]3Cc3ccccc3)[C@@H]3C(=O)NC(=O)[C@H]23)cc(OC)c1OC [(−)‐9 a] | Inhibition (%) of CK2α2β2 [1, 5]: n.s. |
| 4.4 ± 0.3 | n.s. | n.s. |  |  | COc1cc([C@@H]2c3c([nH]c4ccccc34)[C@H](C(=O)N3C(=O)OC[C@@H]3Cc3ccccc3)[C@@H]3C(=O)NC(=O)[C@H]23)cc(OC)c1OC [(−)‐9 b] | Inhibition (%) of CK2α2β2 [1, 5]: n.s. |
|  |  |  | < 50 | n.s. | COc1cc([C@@H]2c3c([nH]c4ccccc34)[C@@H](C(=O)N3C(=O)OC[C@@H]3Cc3ccccc3)[C@@H]3C(=O)NC(=O)[C@H]23)cc(OC)c1OC [(−)‐9 d] |  |
|  |  |  | < 50 | n.s. | COc1cc([C@@H]2c3c([nH]c4ccccc34)[C@@H](C(=O)N[C@H](CO)Cc3ccccc3)[C@@H]3C(=O)NC(=O)[C@H]23)cc(OC)c1OC [(−)‐14 d] |  |

Source: publication PMC7418559, “Synthesis and SAR of Tetracyclic Inhibitors of Protein Kinase CK2 Derived from Furocarbazole W16” (Chemmedchem, 2020)
